From patent US11242343B2 (Incyte Corporation, priority 2016, dated 2022)

Biological target: HPK1 (Homo sapiens, UniProt Q92918)
Test: HPK1 Kinase Binding Assay
Conditions: LanthaScreen tracer 222 binding, one hour incubation at 25° C.
Description: Example A. HPK1 Kinase Binding Assay
A stock solution of 1 mM test compound was prepared in DMSO. The compound plate was prepared by 3-fold and 11-point serial dilutions. 0.1 μL of the compound in DMSO was transferred from the compound plate to the white 384 well polystyrene plates. The assay buffer contained 50 mM HEPES, pH 7.5, 0.01% Tween-20, 5 mM MgCl2, 0.01% BSA, and 5 mM DTT. 5 μl of 4 nM active HPK1 (SignalChem M23-11G) prepared in the buffer was added to the plate. The enzyme concentration given was based on the given stock concentration reported by the vender. 5 μl of 18 nM tracer 222 (ThermoFisher PV6121) and 4 nM LanthaScreen Eu-Anti GST antibody (ThermoFisher PV5595) were added. After one hour incubation at 25° C., the plates were read on a PHERAstar FS plate reader (BMG Labtech). Ki values were determined.

Chain of HPK1 (Q92918 whole entry, looked up): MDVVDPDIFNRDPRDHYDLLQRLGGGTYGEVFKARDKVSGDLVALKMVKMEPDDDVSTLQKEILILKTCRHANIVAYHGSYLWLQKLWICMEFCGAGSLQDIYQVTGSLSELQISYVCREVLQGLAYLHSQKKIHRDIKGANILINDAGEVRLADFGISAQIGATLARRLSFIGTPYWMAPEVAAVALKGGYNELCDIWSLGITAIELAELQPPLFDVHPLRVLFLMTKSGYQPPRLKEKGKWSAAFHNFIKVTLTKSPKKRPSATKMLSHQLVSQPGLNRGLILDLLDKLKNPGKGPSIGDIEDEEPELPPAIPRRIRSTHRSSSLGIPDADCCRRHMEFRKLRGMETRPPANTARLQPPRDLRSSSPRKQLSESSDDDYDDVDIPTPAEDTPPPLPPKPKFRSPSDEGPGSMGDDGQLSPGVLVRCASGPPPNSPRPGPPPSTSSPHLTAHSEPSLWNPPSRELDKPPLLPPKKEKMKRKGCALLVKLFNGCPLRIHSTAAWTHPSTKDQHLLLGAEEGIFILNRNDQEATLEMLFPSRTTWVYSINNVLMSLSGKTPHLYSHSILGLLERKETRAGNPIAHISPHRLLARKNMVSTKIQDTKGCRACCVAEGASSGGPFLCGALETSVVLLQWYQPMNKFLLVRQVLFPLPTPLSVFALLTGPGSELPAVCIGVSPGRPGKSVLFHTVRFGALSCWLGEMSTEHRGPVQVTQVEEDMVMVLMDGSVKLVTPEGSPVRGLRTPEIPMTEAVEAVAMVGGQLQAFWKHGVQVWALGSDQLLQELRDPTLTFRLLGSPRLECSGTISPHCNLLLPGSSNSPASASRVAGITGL

SMILES | Ki [nM]
Cc1cccc(F)c1-c1nc2c(-c3cnc(N4CCOCC4)nc3)n[nH]c2cc1C#N [Example 63, 5-(2-Fluoro-6-methylphenyl)-3-(2-morpholinopyrimidin-5-yl)-1H-pyrazolo[4,3-b]pyridine-6-carbonitrile] | ≤ 100
CN1CCN(c2ccc(-c3n[nH]c4ccc(-c5cccc6c5CCC6NCc5ccccc5)nc34)cc2)CC1 (stereo not shown) [Example 50, N-Benzyl-4-(3-(4-(4-methylpiperazin-1-yl)phenyl)-1H-pyrazolo[4,3-b]pyridin-5-yl)-2,3-dihydro-1H-inden-1-amine] | ≤ 100
CNCc1cc(C)c(-c2nc3c(-c4cnc(N5CCOCC5)nc4)n[nH]c3cc2C#N)c(F)c1 [Example 70, 5-(2-Fluoro-6-methyl-4-((methylamino)methyl)phenyl)-3-(2-morpholinopyrimidin-5-yl)-1H-pyrazolo[4,3-b]pyridine-6-carbonitrile] | ≤ 100
CN1CCC(NC(=O)c2ccc(-c3n[nH]c4ccc(-c5ccccc5F)nc34)cc2)CC1 [Example 55, 4-(5-(2-Fluorophenyl)-1H-pyrazolo[4,3-b]pyridin-3-yl)-N-(1-methylpiperidin-4-yl)benzamide] | ≤ 100
Cc1cccc(F)c1-c1nc2c(-c3ccc(N4CCN(C)CC4)nc3)n[nH]c2cc1C#N [Example 62] | ≤ 100
CN1CCN(c2ccc(-c3n[nH]c4ccc(-c5cccc(C(=O)NCc6ccccc6)c5F)nc34)cc2)CC1 [Example 42, N-Benzyl-2-fluoro-3-(3-(4-(4-methylpiperazin-1-yl)phenyl)-1H-pyrazolo[4,3-b]pyridin-5-yl)benzamide] | ≤ 100

Results, then the molecule that gave them:

Ki [nM] | SMILES
≤ 100 | CN1CCN(c2ccc(-c3n[nH]c4ccc(-c5cccc(C(N)=O)c5F)nc34)cc2)CC1 [Example 40, 2-Fluoro-3-(3-(4-(4-methylpiperazin-1-yl)phenyl)-1H-pyrazolo[4,3-b]pyridin-5-yl)benzamide]
≤ 100 | CN1CCN(c2ccc(-c3n[nH]c4ccc(-c5cccc(NS(C)(=O)=O)c5F)nc34)cc2)CC1 [Example 13, N-(2-Fluoro-3-(3-(4-(4-methylpiperazin-1-yl)phenyl)-1H-pyrazolo[4,3-b]pyridin-5-yl)phenyl)methanesulfonamide]
≤ 100 | CN1CCN(c2ccc(-c3n[nH]c4ccc(-c5cnc6c(c5)ncn6C)nc34)cc2)CC1 [Example 31, 5-(3-Methyl-3H-imidazo[4,5-b]pyridin-6-yl)-3-(4-(4-methylpiperazin-1-yl)phenyl)-1H-pyrazolo[4,3-b]pyridine]
≤ 100 | Cc1ccccc1-c1ccc2[nH]nc(-c3ccc(N4CCN(C)CC4)cc3)c2n1 [Example 3]
≤ 100 | CN1CCN(c2ccc(-c3n[nH]c4ccc(-c5cccc(C(=O)NCc6ccncc6)c5F)nc34)cc2)CC1 [Example 43, 2-Fluoro-3-(3-(4-(4-methylpiperazin-1-yl)phenyl)-1H-pyrazolo[4,3-b]pyridin-5-yl)-N-(pyridin-4-ylmethyl)benzamide]
≤ 100 | CN1CCN(c2ccc(-c3n[nH]c4ccc(-c5cccc6[nH]ncc56)nc34)cc2)CC1 [Example 23, 5-(1H-Indazol-4-yl)-3-(4-(4-methylpiperazin-1-yl)phenyl)-1H-pyrazolo[4,3-b]pyridine]
≤ 100 | CNC(=O)c1cccc(-c2ccc3[nH]nc(-c4ccc(N5CCN(C)CC5)cc4)c3n2)c1F [Example 41, 2-Fluoro-N-methyl-3-(3-(4-(4-methylpiperazin-1-yl)phenyl)-1H-pyrazolo[4,3-b]pyridin-5-yl)benzamide]
